From US20240083872A1, “CYCLIC AMINE DERIVATIVES HAVING SEROTONIN RECEPTOR BINDING ACTIVITY” (Shionogi & Co., Ltd., priority 2020, published 2024)
Where two headings read alike, the source gives them in different places.

Legend:
[1] = biological target: human recombinant 5-HT2A receptor (Homo sapiens (Human), UniProt P28223); test: 5-HT2A receptor binding inhibition test ([3H]-Ketanserin); conditions: Jump-In HEK cell membrane
Method: Test Example 1: 5-HT2A Receptor Binding Inhibition Test
(§1) (Each Experimental Condition)
Cell membrane: Jump-In HEK cell membrane (expressing human recombinant 5-HT2A receptor)
(§2) Assay buffer: Tris-HCl 50 mmol/L (pH 7.4) containing NaCl 120 mmol/L, MgCl2.6H2O 1 mmol/L, KCl 5 mmol/L, 0.1% BSA, and CaCl2 2 mmol/L
Radioactive ligand: [^3H]-Ketanserin around Kd value calculated by the following method
(§3) Non-specific ligand: Serotonin HCl
(§4) The Kd value was calculated when the lot of cell membrane was changed. In advance, 0.5 μL of a 1 mmol/L compound for non-specific binding calculation dissolved in DMSO or DMSO was dispensed into a microplate, and the cell membrane was diluted with an Assay buffer. The radioactive ligand solution was serially diluted and the count was confirmed with a liquid scintillator. Assay buffer containing diluted cell membrane was dispensed into a microplate at 50 μL/well. Then, the radioactive ligand solution was dispensed into a microplate at 50 μL/well, and the plate was sealed. It was allowed to stand at room temperature (25° C.) for 1.5 hours. During this period, 50 mmol/L Tris-HCl (pH 7.4) was dispensed into a GF/B UniFilter plate at 50 μL/well and allowed to stand at 4° C. for 1 hour or longer. After that, filtration was performed with Cell harvester (PerkinElmer). The radioactive ligand solution was dispensed into an empty well of the GF/B UniFilter plate at 10 μL/well. After the GF/B UniFilter plate was dried at room temperature, MicroScinti 20 was dispensed into the GF/B UniFilter plate at 50 μL/well, and the plate was sealed. The GF/B UniFilter plate was allowed to stand overnight at room temperature. The radioactivity of [^3H]-Ketanserin bound to the 5-HT2A receptor was measured using Microbeta2 (PerkinElmer) at a measurement time of 1 min/well. The Saturation curve was drawn from the measured value, and the Kd value was calculated from the slope of the Scatchard Plot.
(§5) (Binding Test of the Compound According to the Present Invention)
(§6) In advance, 0.5 μL of the compound solution dissolved in DMSO was dispensed into a microplate, and the cell membrane and the hot ligand were diluted with Assay buffer, respectively. Then, the Assay buffer containing the diluted cell membrane was dispensed into a microplate at 50 μL/well. Then, the radioactive ligand solution was dispensed into a microplate at 50 μL/well, and the plate was sealed. Then, it was allowed to stand at room temperature (25° C.) for 1.5 hours. During this period, 50 mmol/L Tris-HCl (pH 7.4) was dispensed into a GF/B UniFilter plate at 50 μL/well and allowed to stand at 4° C. for 1 hour or longer. After that, filtration was performed with Cell harvester (PerkinElmer). After the GF/B UniFilter plate was dried at room temperature, MicroScinti 20 was dispensed into the GF/B UniFilter plate at 50 μL/well, and the plate was sealed. The GF/B UniFilter plate was allowed to stand overnight at room temperature. The radioactivity of [^3H]-Ketanserin bound to the 5-HT2A receptor was measured using Microbeta2 (PerkinElmer) at a measurement time of 1 min/well. The non-specific binding was calculated from the radioactivity of [^3H]-Ketanserin in the presence of […] Serotonin HCl with the unlabeled ligand, and the total binding was calculated from the radioactivity of [^3H]-Ketanserin in the absence of the compound according to the present invention (Vehicle). Finally, the Ki value was calculated from the dose-response curve.
(§7) (The binding activity of the compound according to the present invention was calculated from the following binding inhibition rate (%).)
(§8) Inhibition rate (%)=[1−(c−a)/(b−a)]×100 • a; mean cpm of non-specific binding • b; mean cpm of total binding • c; cpm in the presence of the test compound

[2] = biological target: human recombinant 5-HT2C receptor (Homo sapiens (Human), UniProt P28335); test: 5-HT2C receptor binding inhibition test ([3H]-Mesulergine); conditions: Jump-In HEK cell membrane, [3H]-Mesulergine
human recombinant 5-HT2C receptor, sequence (P28335 33-458): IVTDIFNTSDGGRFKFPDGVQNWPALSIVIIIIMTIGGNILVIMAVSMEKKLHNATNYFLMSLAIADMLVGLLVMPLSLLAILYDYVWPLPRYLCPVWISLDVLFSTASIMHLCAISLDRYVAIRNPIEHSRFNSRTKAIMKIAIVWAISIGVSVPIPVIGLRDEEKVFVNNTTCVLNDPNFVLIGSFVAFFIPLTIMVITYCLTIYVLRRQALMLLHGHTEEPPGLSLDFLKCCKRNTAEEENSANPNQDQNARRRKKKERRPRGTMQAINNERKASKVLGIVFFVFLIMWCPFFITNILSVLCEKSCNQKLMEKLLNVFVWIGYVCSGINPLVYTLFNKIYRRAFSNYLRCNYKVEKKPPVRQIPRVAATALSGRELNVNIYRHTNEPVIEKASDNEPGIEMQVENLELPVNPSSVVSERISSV
Method: as §1
Cell membrane: Jump-In HEK cell membrane (expressing human recombinant 5-HT2C receptor)
as §2
Radioactive ligand: [^3H]-Mesulergine around Kd value calculated by the following method
as §3
as §4, with “[…]” for “4°”, “The radioactivity of [^3H]-Ketanserin bound to the 5-HT2A receptor was measured using Microbeta2 (PerkinElmer) at a measurement time of 1 min/well.” left out
as §5
as §6, with “37° C.” for “room temperature (25° C.)”, “2” for “1.5”, “The radioactivity of [^3H]-Ketanserin bound to the 5-HT2A receptor was measured using Microbeta2 (PerkinElmer) at a measurement time of 1 min/well.” left out, “[^3H]-Mesulergine” for “[^3H]-Ketanserin”
as §7, §8

[3] = read-out: human serotonin 5-HT2A receptor binding activity, Ki value
[4] = read-out: human serotonin 5-HT2C receptor binding inhibitory activity, Ki value

human recombinant 5-HT2A receptor, sequence (P28223 whole entry): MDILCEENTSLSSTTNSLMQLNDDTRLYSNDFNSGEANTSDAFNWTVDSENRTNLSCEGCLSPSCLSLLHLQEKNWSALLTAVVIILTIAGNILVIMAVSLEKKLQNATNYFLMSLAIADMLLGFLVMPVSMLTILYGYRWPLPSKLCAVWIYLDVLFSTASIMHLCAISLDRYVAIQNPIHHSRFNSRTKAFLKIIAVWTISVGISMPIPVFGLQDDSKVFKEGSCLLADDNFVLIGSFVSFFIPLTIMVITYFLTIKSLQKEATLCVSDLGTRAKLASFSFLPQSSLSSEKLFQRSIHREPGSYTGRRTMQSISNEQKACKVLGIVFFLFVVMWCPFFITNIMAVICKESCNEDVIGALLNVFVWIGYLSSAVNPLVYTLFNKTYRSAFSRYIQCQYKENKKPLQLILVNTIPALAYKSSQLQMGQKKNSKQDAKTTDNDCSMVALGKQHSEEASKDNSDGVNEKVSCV

| Compound | Ki [1, 3] [nM] | Ki [2, 4] [nM] | Ki ([1]; read-out: h-5-HT2A Ki) [nM] | Ki ([2]; read-out: h-5-HT2C Ki) [nM] |
| --- | --- | --- | --- | --- |
| CC(C)COc1ccc(CN(Cc2ccn(C)n2)C(=O)NC2CCCN(C)CC2)cc1 (racemic) [Compound I-004] | 4.51 | 11.5 | – | – |
| CC(C)COc1ccc(CN(Cc2ccn(C)n2)C(=O)N[C@@H]2CCNC[C@H]2F)cc1 (racemic) [Compound I-018] | – | – | 10 to 100 | 10 to 100 |
| CC(C)COc1ccc(CN(Cc2ccc(F)cn2)C(=O)NC2CCN(C)CC23CC3)cc1 (racemic) [Compound I-044] | – | – | < 10 | < 10 |
| CC(C)COc1ccc(CN(Cc2ccn(C)n2)C(=O)NC2CCN(C)CC23CC3)cc1 (racemic) [Compound I-045] | – | – | < 10 | < 10 |
| CC(C)COc1ccc(CN(Cc2ccn(C)n2)C(=O)NC2CCN(C)C2)cc1 (racemic) [Compound I-054] | – | – | < 10 | – |
| CC(C)COc1ccc(CN(Cc2ccn(C)n2)C(=O)NC2CCN(C)C3(CCC3)C2)cc1 (racemic) [Compound I-067] | – | – | < 10 | < 10 |
| CCCCOc1ccc(CN(Cc2coc(C)n2)C(=O)C(F)C2CCN(C)CC2)cc1F (racemic) [Compound I-124] | – | – | < 10 | < 10 |
| CC(C)COc1ccc(CN(Cc2ccc(F)cn2)C(=O)N[C@H]2CCNC[C@H]2F)cc1 (single isomer, unassigned) [Compound I-006] | 0.968 | 2.47 | – | – |
| CC(C)COc1ccc(CN(Cc2ccc(F)cn2)C(=O)N[C@@H]2CCNC[C@@H]2F)cc1 (single isomer, unassigned) [Compound I-022] | – | – | 10 to 100 | 10 to 100 |
| CC(C)COc1ccc(CN(Cc2ccn(C)n2)C(=O)NC2C3CCC2CN(C)C3)cc1 (single isomer, unassigned) [Compound I-075] | – | – | 10 to 100 | 10 to 100 |
| CC(C)COc1ccc(CN(Cc2ccsc2)C(=O)NC2CCN(C)CC2)cc1 [Compound I-002] | – | – | < 10 | 10 to 100 |
| CN1CCC(NC(=O)N(Cc2ccc(Oc3ccccc3)cc2)Cc2ccn(C)n2)CC1 [Compound I-003] | 9.93 | 8.39 | – | – |
| Cc1cc(CN(Cc2ccc(OCC(C)C)cc2)C(=O)NC2CCN(C)CC2)nn1C [Compound I-005] | – | – | < 10 | 10 to 100 |
| CC(C)COc1ccc(CN(Cc2ccccn2)C(=O)NC2CCN(C)CC2)cc1 [Compound I-007] | – | – | < 10 | 10 to 100 |
| Cc1ccc(CN(Cc2ccc(OCC(C)C)cc2)C(=O)NC2CCN(C)CC2)s1 [Compound I-008] | – | – | < 10 | < 10 |
| CC(C)COc1ccc(CN(Cc2cccn2C)C(=O)NC2CCN(C)CC2)cc1 [Compound I-009] | – | – | < 10 | 100 to 5000 |
| COc1ccc(CN(Cc2ccn(C)n2)C(=O)NC2CCN(C)CC2)cc1C [Compound I-010] | – | – | 10 to 100 | 100 to 5000 |
| CN1CCC(NC(=O)N(Cc2ccc(OCCO)cc2)Cc2ccn(C)n2)CC1 [Compound I-011] | – | – | 100 to 5000 | 100 to 5000 |
| CC(C)COc1ccc(CN(Cc2ccn(C)n2)C(=O)CC2CCN(C)CC2)cc1 [Compound I-012] | 6.02 | 33 | – | – |

| Compound | Ki [1, 3] [nM] | Ki [2, 4] [nM] | Ki ([1]; read-out: h-5-HT2A Ki) [nM] | Ki ([2]; read-out: h-5-HT2C Ki) [nM] |
| --- | --- | --- | --- | --- |
| COc1ccc(CN(Cc2ccn(C)n2)C(=O)NC2CCN(C)CC2)c(F)c1 [Compound I-013] | – | – | 10 to 100 | 10 to 100 |
| COc1ccc(CN(Cc2ccn(C)n2)C(=O)NC2CCN(C)CC2)cc1F [Compound I-014] | – | – | < 10 | 10 to 100 |
| CN1CCC(NC(=O)N(Cc2ccc3c(c2)CCO3)Cc2ccn(C)n2)CC1 [Compound I-015] | 45.5 | – | – | – |
| CC(C)COc1ccc(CN(Cc2ccc(F)cn2)C(=O)NC2CCNCC2)cc1 [Compound I-017] | – | – | < 10 | < 10 |
| CC(C)COc1ccc(CN(Cc2ccncn2)C(=O)NC2CCN(C)CC2)cc1 [Compound I-019] | – | – | 10 to 100 | 100 to 5000 |
| CC(C)COc1ccc(CN(Cc2cnccn2)C(=O)NC2CCN(C)CC2)cc1 [Compound I-020] | – | – | 10 to 100 | 10 to 100 |
| CCCOc1ccc(CN(Cc2ccc(F)cn2)C(=O)NC2CCN(C)CC2)cc1 [Compound I-021] | – | – | < 10 | < 10 |
| Cc1cccnc1CN(Cc1ccc(OCC(C)C)cc1)C(=O)NC1CCN(C)CC1 [Compound I-023] | – | – | < 10 | 10 to 100 |
| CC(C)COc1ccc(CN(Cc2ccco2)C(=O)NC2CCN(C)CC2)cc1 [Compound I-024] | – | – | < 10 | < 10 |
| CC(C)COc1ccc(CN(Cc2ccncc2)C(=O)NC2CCN(C)CC2)cc1 [Compound I-052] | – | – | 10 to 100 | – |
| CC(C)COc1ccc(CN(Cc2ccnn2C)C(=O)NC2CCN(C)CC2)cc1 [Compound I-053] | – | – | 100 to 5000 | – |
| CC(C)COc1ccc(CN(Cc2cc(-c3ccccc3)n(C)n2)C(=O)NC2CCN(C)CC2)cc1 [Compound I-055] | – | – | 10 to 100 | – |
| CC(C)COc1ccc(CN(Cc2cc(C(F)(F)F)ccn2)C(=O)NC2CCN(C)CC2)cc1 [Compound I-056] | – | – | 10 to 100 | – |
| CC(C)COc1ccc(CN(Cc2cccnc2)C(=O)NC2CCN(C)CC2)cc1 [Compound I-057] | – | – | 100 to 5000 | – |
| CC(C)COc1ccc(CN(Cc2ccn(C)n2)C(=O)N[C@@H]2C[C@H]3CC[C@@H](C2)N3C)cc1 [Compound I-062] | – | – | 10 to 100 | – |
| CC(C)COc1ccc(CN(Cc2ccn(C)n2)C(=O)NC2CCN(C3COC3)CC2)cc1 [Compound I-071] | – | – | 100 to 5000 | – |
| CNC(=O)CN1CCC(NC(=O)N(Cc2ccc(OCC(C)C)cc2)Cc2ccn(C)n2)CC1 [Compound I-072] | – | – | 100 to 5000 | – |
| CC(C)COc1ccc(CN(Cc2ccn(C)n2)C(=O)N[C@H]2C[C@H]3CCC[C@@H](C2)N3C)cc1 [Compound I-073] | – | – | 100 to 5000 | – |
| CC(C)COc1ccc(CN(Cc2ccn(C)n2)C(=O)N[C@@H]2C[C@H]3CCC[C@@H](C2)N3C)cc1 [Compound I-074] | – | – | < 10 | – |
